# From US5856095A, “Identification of two novel mutant alleles of human thiopurine S-methyltransferase, and diagnostic uses thereof” (priority 1995, dated 1999)
# Residue numbers refer to the chain shown, from its start. Names and notes keep the numbering of the source. “Also recorded” adds a separate entry of the source. Where two headings read alike, the source gives them in different places.
# T1: TPMTB (Homo sapiens, UniProt P51580, A154T/Y240C)
# T1 construct: the whole mutant proteins are expressed in yeast; made in house; host or cells: yeast strain 2805
# T1 sequence (P51580 1-245 A154T/Y240C): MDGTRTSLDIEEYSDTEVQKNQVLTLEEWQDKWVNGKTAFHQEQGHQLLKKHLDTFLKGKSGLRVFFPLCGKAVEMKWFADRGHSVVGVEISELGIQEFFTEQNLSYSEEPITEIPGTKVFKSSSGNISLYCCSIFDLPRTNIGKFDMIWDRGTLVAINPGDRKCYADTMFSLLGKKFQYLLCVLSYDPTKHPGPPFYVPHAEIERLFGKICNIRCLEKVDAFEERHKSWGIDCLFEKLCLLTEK
# T2: TPMT719 (Homo sapiens, UniProt P51580, Y240C)
# T2 sequence (P51580 1-245 Y240C): T1 sequence (P51580 1-245 A154T/Y240C) with T154A
# B1: TPMTA: mutant TPMT with G238C point mutation, Ala80→Pro, expressed in yeast (protein)
# chain: T1 sequence (P51580 1-245 A154T/Y240C) with A80P, T154A, C240Y
# B2: TPMT460: TPMT from cDNA containing only G460A (Ala154→Thr), expressed in yeast (protein)
# chain: T1 sequence (P51580 1-245 A154T/Y240C) with C240Y
# B3: wild-type TPMT: wild-type human thiopurine S-methyltransferase expressed in yeast (protein)
# chain: T1 sequence (P51580 1-245 A154T/Y240C) with T154A, C240Y
# B4: TPMT719: TPMT from cDNA containing only A719G (Tyr240→Cys), expressed in yeast (protein)
# chain: T1 sequence (P51580 1-245 A154T/Y240C) with T154A
# How the values were obtained:
# [1] = patients with TPMT deficiency treated with standard dosages; cited from earlier work
# [2] = biological target: TPMTA (Homo sapiens, UniProt P51580, A80P); conditions: heterologously expressed TPMTA
# [3] = human, in vivo
# [4] = Hematopoietic toxicity of thiopurines in TPMT-deficient patients; format: in vivo, human
# Excerpt: TPMT phenotype was assigned on the basis of erythrocyte TPMT activity, according to the criteria of Weinshilboum and Sladek (Weinshilboum and Sladek, Am. J. Hum. Genet. 32:651-662 (1980)).
# [5] = biological target: T1, TPMTB; assay: S-methylation of 6-MP catalyzed by TPMTB (G460A and A719G) expressed in yeast (kinetic parameters, activity); format: biochemical; conditions: 6MP concentrations up to 2 mM
# Experimental: Yeast cells transformed with recombinant expression vectors or the vector without TPMT cDNA (control) were grown on galactose-containing medium for 24 hr at 30° C. Yeast cells were treated with Lyticase (Sigma, St. Louis, Mo.), sedimented after washing with a buffer (pH 6.2) containing 20 mM 2-[N-morpholino]ethanesulfonic acid (MES) and 1.5M sorbitol, and resuspended with Tris-HCl buffer (pH 7.8) containing 100 KIU/Ml aprotinin and 1 mM phenylmethylsulfonyl fluoride. After sonication, the cytosolic fraction was obtained by centrifugation at 100,000 g for 60 min at 4° C. The concentration of protein in yeast lysates was determined using the Bio-RadDC protein assay (Lowry, O. H., et al., J. Biol. Chem. 193:265-275 (1951)). The level of expression was measured by Western blot analysis.
# These reaction conditions differ from that previously published (Krynetski, E. Y. et al., Mol. Pharmacol. 47:1141-1147 (1995)); i.e. incubation at 37 C instead of 21.5 C, analysis of MeMP production formation instead of substrate disappearance, and the use of higher substrate concentrations in the present study. The amount of TPMT in each reaction was made the same (0.57 μg TPMT) by adjusting the amount of yeast cytosol according to TPMT protein levels detected by the Western-blot analysis. […]
# [6] = biological target: T2, TPMT719
# Excerpt: (§1) FIGS. 9A, 9B, and 9C depict comparison of TPMT mRNA, protein, and activity levels in yeast transformed with vector alone without any insert (lane 1), vector with wild-type cDNA (lane 2), vector with cDNA containing G460A (lane 3), vector with cDNA containing A719G (lane 4), vector with cDNA containing both G460A and A719G (TPMTB) (lanes 5 and 6).
# (§2) The wild type and mutant cDNA clones were used as templates for site-directed mutagenesis. PCR conditions were as described above except that annealing temperature was changed to 50° C. and 1.3 units of Pyrococcus furiosus DNA polymerase (Stratagene, La Jolla, Calif.) was used. […] In order to prepare cDNA containing either mutation found in this patient, two reverse primers were designed for further mutagenesis. […] The resultant PCR products were also ligated into the expression vector. […] Nucleotide structures of all cDNAs were confirmed by sequencing.
# (§3) Yeast cells were treated with Lyticase (Sigma, St. Louis, Mo.), sedimented after washing with a buffer (pH 6.2) containing 20 mM 2-[N-morpholino]ethanesulfonic acid (MES) and 1.5M sorbitol, and resuspended with Tris-HCl buffer (pH 7.8) containing 100 KIU/Ml aprotinin and 1 mM phenylmethylsulfonyl fluoride. After sonication, the cytosolic fraction was obtained by centrifugation at 100,000 g for 60 min at 4° C. […] The level of expression was measured by Western blot analysis.
# (§4) The amount of TPMT in each reaction was made the same (0.57 μg TPMT) by adjusting the amount of yeast cytosol according to TPMT protein levels detected by the Western-blot analysis.
# [7] = test system: TPMT460
# Excerpt: as §1, §2, §3, §4
# [8] = test system: TPMT; assay: TPMT enzymatic activity of yeast lysates expressing wild-type or G238C mutant TPMT cDNA (Example 1); format: biochemical, human; conditions: for enzymatic activity, fold difference between wild-type and G238C mutant TPMT: expressed in yeast; for TPMT activity in yeast lysates: yeast transformed with wild-type or G238C mutant TPMT cDNA
# Experimental: In all experiments on heterologous expression of TPMT, yeast transformed with the expression vector without the TPMT cDNA insert was used as a control.
# Enzymatic activity of yeast lysates was assayed in a total volume of 1 ml, and formation of the S-methylated thiopurine product was determined by HPLC.
# [9] = test system: TPMT; assay: Intrinsic stability of recombinant TPMT proteins at 37° C. in vitro; format: biochemical, human; conditions: for time to inactivation: 0.1M Tris-HCl pH 7.5; for TPMT activity at 37° C., 0 hr: yeast lysates, 2 mM 6MP and 1 mM SAM
# Experimental: Yeast cytosols expressing wild-type TPMT460, or TPMT719 protein were incubated in 0.1M Tris-HCl (pH 7.5) at 37° C. […] The assay of TPMT activity was then allowed to proceed for 15 min at 37° C., and MeMP was measured as described above. Total protein concentrations of yeast lysate in the incubation mixture were 0.09, 0.37, 0.08 mg/ml for the wild-type, TPMT460, and TPMT719, respectively, to give equal amount of TPMT in the incubation. The same assay mixture without yeast lysate served as the blank, and the background values for non-enzymatic methylation (<10%) were subtracted from all values obtained. An aliquot of sample at each time point was taken for Western blot analysis. The samples at 0° C., 0 hr served as controls for the blots with TPMT460 and TPMT719.
# [10] = yeast lysates, 10 μM 6MP and 1 mM SAM (FIG. 9C)
molecule,measurement,setting,value
"Sc1ncnc2nc[nH]c12 [6MP, 6-mercaptopurine]",hematopoietic toxicity,[1],severe hematopoietic toxicity
same,"Vmax/Km ratio, fold lower than wild-type TPMT",[2],5 fold
same,"erythrocyte concentration of TGNs, fold higher than the population median",[3],> 15 fold
same,"erythrocyte concentration of TGNs, population median",[3],280 pmol/ml pRBC
same,hematopoietic toxicity,"[4]; TPMT-deficient child with acute lymphoblastic leukemia, oral 75 mg/m2 per day",severe hematopoietic toxicity
same,hematopoietic toxicity,"[4]; TPMT-deficient child with acute lymphocytic leukemia, 50 mg/m2/day",severe hematopoietic toxicity
same,TPMT activity (S-methylation of 6MP),[5],no activity of TPMTB could be detected; also recorded: undetectable
same,intrinsic clearance (Vmax/Km) relative to wild-type,[6],comparable to wild-type
same,"catalytic activity reduced compared with wild-type, normalized to TPMT content",[6]; [10],1.4 fold
same,increase in Km for 6MP versus wild-type,[7]; substrate 6MP,46 fold
same,"catalytic activity reduced compared with wild-type, normalized to TPMT content",[7]; [10],9 fold
C[S+](CC[C@H](N)C(=O)O)C[C@H]1O[C@@H](n2cnc3c(N)ncnc32)[C@H](O)[C@@H]1O (some centres unmarked) [SAM],increase in Km for co-substrate SAM versus wild-type,[7]; co-substrate SAM,200 fold
Cn1cnc([N+](=O)[O-])c1Sc1ncnc2nc[nH]c12 [azathioprine],hematopoietic toxicity,[1],severe hematopoietic toxicity
B1,"enzymatic activity, fold difference between wild-type and G238C mutant TPMT",[8],approximately 100 fold
same,"enzymatic activity, fold difference between wild-type and G238C mutant TPMT",[8]; listed as mutant TPMT,≈ 100 fold
same,TPMT activity in yeast lysates,[8],< 1.0 nmol/hr per mg of protein
B2,time to inactivation,[9]; 37° C.,≤ 4 h
same,"TPMT activity at 37° C., 0 hr",[9],142.5 nmol/min/mg TPMT
B3,TPMT activity remaining,"[9]; 37° C., 12 hr",30%
same,"TPMT activity at 37° C., 0 hr",[9],83.7 nmol/min/mg TPMT
same,TPMT activity in yeast lysates,[8],113-123 nmol/hr per mg of protein
B4,time to inactivation,[9]; 37° C.,≤ 4 h
same,"TPMT activity at 37° C., 0 hr",[9],88.6 nmol/min/mg TPMT
